Data: US10479780B2, “Aminopyrazole derivatives” (Chugai Seiyaku Kabushiki Kaisha, priority 2015, dated 2019)

What was measured:
Type in all cases: biochemical
human Src enzyme = biological target: T1, human Src enzyme (Homo sapiens, UniProt P12931); assay: Src enzyme inhibitory activity (time-resolved fluorometry, biotinylated peptide phosphorylation); settings: read-out: SRC_IC50
T1 construct: purchased Carna Biosciences, Inc. 08-173
Outline: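 Compounds were tested for blocking tyrosine phosphorylation of a biotinylated peptide substrate by recombinant human Src. Phosphorylated product was quantified by time-resolved fluorometry using europium cryptate and XL665 conjugates, and IC50 was calculated against the compound-free control.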

human Lck enzyme = biological target: T2, human Lck enzyme (Homo sapiens, UniProt P06239); assay: Lck enzyme inhibitory activity (time-resolved fluorometry, biotinylated peptide phosphorylation); settings: read-out: LCK_IC50
T2 construct: purchased Carna Biosciences, Inc. 08-170
Outline: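 Readout pairs a europium cryptate-labelled anti-phosphotyrosine antibody with XL665-streptavidin, measured by time-resolved fluorescence. IC50 derived from percent inhibition against untreated controls.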

human Yes1 enzyme = biological target: T3, human Yes1 enzyme (Homo sapiens, UniProt P07947); assay: Yes1 enzyme inhibitory activity (time-resolved fluorometry, biotinylated peptide phosphorylation); settings: read-out: YES_IC50
T3 construct: made in house
Outline: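 Inhibition was expressed against a compound-free control to give IC50, using TR-FRET read-out (Eu-cryptate anti-pTyr antibody, streptavidin-XL665).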

T3 sequence (P07947 whole entry): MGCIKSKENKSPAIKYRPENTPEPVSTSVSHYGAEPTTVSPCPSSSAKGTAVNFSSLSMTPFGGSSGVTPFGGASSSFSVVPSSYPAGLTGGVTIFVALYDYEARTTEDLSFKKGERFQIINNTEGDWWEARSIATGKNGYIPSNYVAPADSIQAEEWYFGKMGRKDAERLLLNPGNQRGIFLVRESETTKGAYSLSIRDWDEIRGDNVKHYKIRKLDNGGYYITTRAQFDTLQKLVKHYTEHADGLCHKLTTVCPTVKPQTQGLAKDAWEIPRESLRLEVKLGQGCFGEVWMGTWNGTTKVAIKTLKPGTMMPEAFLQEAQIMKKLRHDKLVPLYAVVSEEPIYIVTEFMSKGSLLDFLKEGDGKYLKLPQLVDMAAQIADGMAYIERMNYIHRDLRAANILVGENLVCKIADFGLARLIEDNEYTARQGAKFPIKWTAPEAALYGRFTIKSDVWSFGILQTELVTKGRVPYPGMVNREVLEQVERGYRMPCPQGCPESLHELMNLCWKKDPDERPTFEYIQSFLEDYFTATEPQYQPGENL
T2 sequence (P06239 whole entry): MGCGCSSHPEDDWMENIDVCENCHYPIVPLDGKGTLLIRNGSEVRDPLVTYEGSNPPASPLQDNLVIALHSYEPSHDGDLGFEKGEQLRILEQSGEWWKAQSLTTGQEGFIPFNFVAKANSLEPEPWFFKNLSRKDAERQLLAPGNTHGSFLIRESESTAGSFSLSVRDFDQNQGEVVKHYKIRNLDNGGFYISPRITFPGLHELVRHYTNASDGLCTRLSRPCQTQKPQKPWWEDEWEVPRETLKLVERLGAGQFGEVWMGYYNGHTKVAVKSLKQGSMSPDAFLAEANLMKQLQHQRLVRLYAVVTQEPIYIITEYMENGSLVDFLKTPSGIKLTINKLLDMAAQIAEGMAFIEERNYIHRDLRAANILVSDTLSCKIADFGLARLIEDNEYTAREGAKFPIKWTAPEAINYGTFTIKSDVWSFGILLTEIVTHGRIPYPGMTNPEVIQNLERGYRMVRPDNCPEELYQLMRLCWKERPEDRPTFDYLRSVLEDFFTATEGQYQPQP
T1 sequence (P12931 whole entry): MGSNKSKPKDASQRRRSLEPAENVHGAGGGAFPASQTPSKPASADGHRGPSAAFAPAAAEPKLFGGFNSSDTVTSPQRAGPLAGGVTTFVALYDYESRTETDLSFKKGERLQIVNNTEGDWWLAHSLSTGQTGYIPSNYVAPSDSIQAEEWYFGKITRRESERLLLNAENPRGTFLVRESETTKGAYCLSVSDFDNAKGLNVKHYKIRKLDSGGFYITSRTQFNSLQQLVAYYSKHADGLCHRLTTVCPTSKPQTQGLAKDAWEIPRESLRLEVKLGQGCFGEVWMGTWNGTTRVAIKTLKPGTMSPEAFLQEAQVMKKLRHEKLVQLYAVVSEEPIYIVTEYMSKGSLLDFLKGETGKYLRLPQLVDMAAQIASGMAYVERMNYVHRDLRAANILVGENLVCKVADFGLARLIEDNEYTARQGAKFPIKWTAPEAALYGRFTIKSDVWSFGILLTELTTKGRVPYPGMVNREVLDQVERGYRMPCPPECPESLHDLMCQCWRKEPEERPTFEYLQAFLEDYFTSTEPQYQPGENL

IC50 (human Src enzyme)	IC50 (human Lck enzyme)	IC50 (human Yes1 enzyme)	SMILES
11 nM	2.6 nM	0.43 nM	Cc1cc(Oc2c(F)cccc2F)ncc1-n1ncc(C(=O)c2cc3cc(OC4CCN(C(C)C)CC4)c(NS(C)(=O)=O)cc3[nH]2)c1N [Example 5-1-184, N-[2-[5-amino-1-[6-(2,6-difluorophenoxy)-4-methylpyridin-3-yl]pyrazole-4-carbonyl]-5-(1-propan-2-ylpiperidin-4-yl)oxy-1H-indol-6-yl] methanesulfonamide]
2.5 nM	1.7 nM	0.36 nM	Cc1cc(Oc2c(F)cccc2F)ncc1-n1ncc(C(=O)c2cc3cc(OC4CCN(C(C)C)CC4)c(N4CCOCC4)cc3[nH]2)c1N [Example 5-1-185, [5-amino-1-[6-(2,6-difluorophenoxy)-4-methylpyridin-3-yl]pyrazol-4-yl]-[6-morpholin-4-yl-5-(1-propan-2-ylpiperidin-4-yl)oxy-1H-indol-2-yl]methanone]
1.9 nM	1.3 nM	0.28 nM	Cc1cc(Oc2c(F)cccc2F)ncc1-n1ncc(C(=O)c2cc3cc(OC4CCN(C(C)C)CC4)c(N4CCOC4=O)cc3[nH]2)c1N [Example 5-1-186, 3-[2-[5-amino-1-[6-(2,6-difluorophenoxy)-4-methylpyridin-3-yl]pyrazole-4-carbonyl]-5-(1-propan-2-ylpiperidin-4-yl)oxy-1H-indol-6-yl]-1,3-oxazolidin-2-one]
3.2 nM	2.3 nM	0.62 nM	Cc1cc(Oc2c(F)cccc2F)ncc1-n1ncc(C(=O)c2cc3cc(OC4CCN(C(C)C)CC4)c(N4CCN(S(C)(=O)=O)CC4)cc3[nH]2)c1N [Example 5-1-187, [5-amino-1-[6-(2,6-difluorophenoxy)-4-methylpyridin-3-yl]pyrazol-4-yl]-[6-(4-methylsulfonylpiperazin-1-yl)-5-(1-propan-2-ylpiperidin-4-yl)oxy-1H-indol-2-yl]methanone]
4.6 nM	1.2 nM	0.3 nM	Cc1cc(Oc2c(F)cccc2F)ncc1-n1ncc(C(=O)c2cc3cc(OC4CCN(C(C)C)CC4)c(N4C(=O)NC(C)(C)C4=O)cc3[nH]2)c1N [Example 5-1-188, 3-[2-[5-amino-1-[6-(2,6-difluorophenoxy)-4-methylpyridin-3-yl]pyrazole-4-carbonyl]-5-(1-propan-2-ylpiperidin-4-yl)oxy-1H-indol-6-yl]-5,5-dimethylimidazolidine-2,4-dione]
3.3 nM	1.5 nM	0.38 nM	Cc1cc(Oc2ccccc2F)ccc1-n1ncc(C(=O)c2cc3cc(OC4CCN(C(C)C)CC4)c(NS(C)(=O)=O)cc3[nH]2)c1N [Example 5-1-189, N-[2-[5-amino-1-[4-(2-fluorophenoxy)-2-methylphenyl]pyrazole-4-carbonyl]-5-(1-propan-2-ylpiperidin-4-yl)oxy-1H-indol-6-yl] methanesulfonamide]
1.8 nM	1.3 nM	0.41 nM	Cc1cc(Oc2ccccc2F)ccc1-n1ncc(C(=O)c2cc3cc(OC4CCN(C(C)C)CC4)c(N4CCOCC4)cc3[nH]2)c1N [Example 5-1-190, [5-amino-1-[4-(2-fluorophenoxy)-2-methylphenyl]pyrazol-4-yl]-[6-morpholin-4-yl-5-(1-propan-2-ylpiperidin-4-yl)oxy-1H-indol-2-yl]methanone]
2.2 nM	1.6 nM	0.48 nM	Cc1cc(Oc2ccccc2F)ccc1-n1ncc(C(=O)c2cc3cc(OC4CCN(C(C)C)CC4)c(N4CCN(S(C)(=O)=O)CC4)cc3[nH]2)c1N [Example 5-1-191, [5-amino-1-[4-(2-fluorophenoxy)-2-methylphenyl]pyrazol-4-yl]-[6-(4-methylsulfonylpiperazin-1-yl)-5-(1-propan-2-ylpiperidin-4-yl)oxy-1H-indol-2-yl]methanone]
1.1 nM	0.86 nM	0.29 nM	Cc1cc(Oc2ccccc2F)ccc1-n1ncc(C(=O)c2cc3cc(OC4CCN(C(C)C)CC4)c(N4CCOC4=O)cc3[nH]2)c1N [Example 5-1-192, 3-[2-[5-amino-1-[4-(2-fluorophenoxy)-2-methylphenyl]pyrazole-4-carbonyl]-5-(1-propan-2-ylpiperidin-4-yl)oxy-1H-indol-6-yl]-1,3-oxazolidin-2-one]
2.3 nM	1.3 nM	0.32 nM	Cc1cc(Oc2ccccc2F)ccc1-n1ncc(C(=O)c2cc3cc(OC4CCN(C(C)C)CC4)c(N4C(=O)NC(C)(C)C4=O)cc3[nH]2)c1N [Example 5-1-193, 3-[2-[5-amino-1-[4-(2-fluorophenoxy)-2-methylphenyl]pyrazole-4-carbonyl]-5-(1-propan-2-ylpiperidin-4-yl)oxy-1H-indol-6-yl]-6,5-dimethylimidazolidine-2,4-dione]
1.5 nM	1.2 nM	0.35 nM	Cc1cc(Oc2ccccc2F)ccc1-n1ncc(C(=O)c2cc3cc(OC4CCN(C(C)C)CC4)c(N4CCC(N5CCOCC5)CC4)cc3[nH]2)c1N [Example 5-1-194, [5-amino-1-[4-(2-fluorophenoxy)-2-methylphenyl]pyrazol-4-yl]-[6-(4-morpholin-4-ylpiperidin-1-yl)-5-(1-propan-2-ylpiperidin-4-yl)oxy-1H-indol-2-yl]methanone]
190 nM	45 nM	1.3 nM	Cc1cc(-n2ncc(C(=O)c3cc4cc(OC5CCN(C(C)C)CC5)c(F)cc4[nH]3)c2N)ccc1Oc1ccccc1F [Example 5-1-195, [5-amino-1-[4-(2-fluorophenoxy)-3-methylphenyl]pyrazol-4-yl]-[6-fluoro-5-(1-propan-2-ylpiperidin-4-yl)oxy-1H-indol-2-yl] methanone]
190 nM	67 nM	1.7 nM	Cc1cc(-n2ncc(C(=O)c3cc4cc(OC5CCN(C(C)C)CC5)c(Cl)cc4[nH]3)c2N)ccc1Oc1ccccc1F [Example 5-1-196, [5-amino-1-[4-(2-fluorophenoxy)-3-methylphenyl]pyrazol-4-yl]-[6-chloro-5-(1-propan-2-ylpiperidin-4-yl)oxy-1H-indol-2-yl] methanone]
7.7 nM	8.3 nM	0.87 nM	Cc1cc(Oc2ccccc2F)ccc1-n1ncc(C(=O)c2cc3cc(OC4CCN(C(C)C)CC4)c(Cl)cc3[nH]2)c1N [Example 5-1-197, [5-amino-1-[4-(2-fluorophenoxy)-2-methylphenyl]pyrazol-4-yl]-[6-chloro-5-(1-propan-2-ylpiperidin-4-yl)oxy-1H-indol-2-yl] methanone]
270 nM	36 nM	1.5 nM	Cc1cc2cc(C(=O)c3cnn(-c4ccc(Oc5ccccc5F)c(F)c4)c3N)[nH]c2cc1NS(C)(=O)=O [Example 5-1-198, N-[2-[5-amino-1-[3-fluoro-4-(2-fluorophenoxy)phenyl]pyrazole-4-carbonyl]-5-methyl-1H-indol-6-yl]methanesulfonamide]
78 nM	37 nM	2.7 nM	Cc1cc2cc(C(=O)c3cnn(-c4cc(F)c(Oc5ccccc5F)cc4C)c3N)[nH]c2cc1NS(C)(=O)=O [Example 5-1-199, N-[2-[5-amino-1-[5-fluoro-4-(2-fluorophenoxy)-2-methylphenyl]pyrazole-4-carbonyl]-5-methyl-1H-indol-6-yl]methanesulfonamide]
